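Tested at 5 concentrations; 48 h exposure; 96-well plates; endpoints linearly interpolated, else capped at highest concentration. GI50 is the concentration that inhibits growth by half. The concentration for full growth arrest is given as TGI.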
Key:
Experiment in all cases: DTP human tumour cell line panel, 48 h
[1] = system: HCC-2998 colon
[2] = system: NCI-H460 lung
[3] = system: IGROV1 ovarian
[4] = system: 786-0 renal
[5] = system: NCI-H226 lung
[6] = system: EKVX NSCLC
[7] = system: ACHN renal
[8] = system: SK-OV-3 ovarian
[9] = system: OVCAR-4 ovarian
[10] = system: PC-3 prostate

| SMILES | TGI [1] [µM] | TGI [2] [µM] | TGI [3] [µM] | TGI [4] [µM] | TGI [5] [µM] | TGI [6] [µM] | TGI [7] [µM] | TGI [8] [µM] | TGI [9] [µM] | GI50 [2] [µM] | GI50 [3] [µM] | GI50 [4] [µM] | GI50 [5] [µM] | GI50 [6] [µM] | GI50 [7] [µM] | GI50 [8] [µM] | GI50 [9] [µM] | GI50 [1] [µM] | GI50 [10] [µM] | TGI [10] [µM] |
| --- | --- | --- | --- | --- | --- | --- | --- | --- | --- | --- | --- | --- | --- | --- | --- | --- | --- | --- | --- | --- |
| C[C@]12CC[C@H](O)CC1=CC[C@@H]1C2CC[C@]2(C)Nc3c(cnn3-c3ccccc3)CC12 (some centres undefined) | 22.3 | 10.8 | 33.3 | 7.16 | 56.1 | 57.7 | 29.7 | 20.7 | 36.6 |  |  |  |  |  |  |  |  |  |  |  |
| CC(C)(C)C(=CS(=O)/N=C/c1ccccc1)C(C)(C)C (centres undefined) |  | 73.2 | 71.2 | > 100 | > 100 | > 100 | > 100 | 69.8 | 70.9 |  |  |  |  |  |  |  |  |  |  |  |
| Cc1cccc(C)c1NC(=O)CCc1nc(=S)[nH][nH]1 | > 100 | > 100 | > 100 | > 100 | > 100 | > 100 | > 100 | > 100 | > 100 |  |  |  |  |  |  |  |  |  |  |  |
| CC(C)OP(=O)(OC(C)C)/C(N)=N/Nc1ccc([N+](=O)[O-])cc1 | > 100 | > 100 |  | > 100 | > 100 | > 100 | > 100 |  | > 100 |  |  |  |  |  |  |  |  |  |  |  |
| CN(C)c1nc2ccccc2c2c1c1c(n2Cc2ccccc2)-c2ccccc2C1=O |  | > 100 | > 100 | > 100 | > 100 | > 100 | > 100 | > 100 | > 100 | > 100 | 27.2 | > 100 | > 100 | > 100 | > 100 | > 100 | 31.3 |  |  |  |
| Cc1c(NC(=S)NC(=O)c2ccc([N+](=O)[O-])cc2)c(=O)n(-c2ccccc2)n1C | > 100 | > 100 | > 100 | > 100 | > 100 | > 100 | > 100 | > 100 | > 100 |  |  |  |  |  |  |  |  |  |  |  |
| N/N=C1\C(=O)N(c2ccc(Cl)cc2Cl)C(=O)C(=O)C1c1nc2ccccc2o1 (centres undefined) | > 100 | > 100 | > 100 | > 100 | > 100 | > 100 | > 100 | > 100 | > 100 |  |  |  |  |  |  |  |  |  |  |  |
| COc1cc2c(cc1OC)C(=O)/C(=C/c1cc(-c3ccc4c(c3)OCO4)n[nH]1)C2 | 3.44 | 3.79 | 4.58 | 2.99 |  |  | 3.23 | 7.16 | 2.36 | 1.68 | 1.89 | 1.61 |  |  | 1.73 | 2.89 | 1.11 | 1.88 | 1.29 | 2.92 |
| CC1CCSC(N(C(=O)N(C)c2ccccc2)c2ccccc2)=N1 (centres undefined) | > 100 | > 100 | > 100 | > 100 | > 100 | > 100 | > 100 | > 100 |  |  |  |  |  |  |  |  |  |  |  |  |
| COC(=O)CC(NC(=O)OCc1ccccc1)C(C(=O)OCc1ccccc1)C(C)(OC)OC (centres undefined) | > 100 | 80.2 | > 100 | > 100 | 97.5 | > 100 | > 100 |  | > 100 |  |  |  |  |  |  |  |  |  |  |  |
| CSCCCNC(=O)c1ccc2c(c1)/C(=C/c1[nH]c(C)cc1C)C(=O)N2 | > 100 | > 100 | > 100 | > 100 | > 100 |  | > 100 | 62.8 |  | 0.872 | 0.421 | 1.93 | 2.24 |  | 0.299 | 0.366 |  | 4.95 | 0.647 | > 100 |
| Cc1c2c(c(C)c3c4c(oc13)CCCC4)C=NCC2 | 36.1 | 31.2 | 26.5 | > 100 | 31.5 | 32 | 37.7 | 38.1 | 54.8 |  |  |  |  |  |  |  |  |  |  |  |
| O=C1C=CC(=O)c2c(O)c(NCCOCCO)c(Cl)c(O)c21 |  | 13.6 | 18.1 | 17.2 | 32.4 |  | 28.7 | 31.1 | 5.91 |  |  |  |  |  |  |  |  |  |  |  |
| CC(=O)OCC(=O)[C@@]12OC(C)(C)O[C@@H]1C[C@H]1[C@@H]3CC(C=O)=C4C=C(OCCCl)CC[C@]4(C)[C@@]3(F)[C@@H](O)C[C@@]12C | 29.5 | 88.4 | > 100 | > 100 | 64.8 | > 100 | > 100 | > 100 | > 100 |  |  |  |  |  |  |  |  |  |  |  |
| CN(C)CCSS(=O)(=O)O |  | 34.7 | > 100 | > 100 | > 100 | > 100 | > 100 | > 100 | > 100 |  |  |  |  |  |  |  |  |  |  | > 100 |
| COc1ccc(CCc2cc(OC)cc(OC)c2)cc1 | 51.2 | > 100 | > 100 | > 100 | > 100 | > 100 | > 100 | > 100 | > 100 |  |  |  |  |  |  |  |  |  |  |  |
| Cc1ccc(N=Nc2c(O)ccc3ccccc23)cc1 |  |  | > 100 | > 100 | > 100 | > 100 | > 100 | > 100 | > 100 |  |  |  |  |  |  |  |  |  |  | > 100 |
| CC(C)CCCC(C)[C@H]1CCC2[C@@H]3CCC4Nc5c(cnn5-c5ccccc5)C[C@]4(C)C3CC[C@@]21C (some centres undefined) | > 100 | > 100 | > 100 | > 100 | > 100 | 79.8 | > 100 | > 100 | 80.1 |  |  |  |  |  |  |  |  |  |  |  |
| O=S(=O)(NCn1ccc2ccccc21)c1ccccc1 | > 100 | > 100 | > 100 | > 100 | > 100 | > 100 | > 100 | > 100 |  |  |  |  |  |  |  |  |  |  |  |  |
| O=c1ncccn1C1OC(CO)C(O)C1O (centres undefined) | > 100 | > 100 | > 100 | > 100 | > 100 | > 100 | > 100 | > 100 | > 100 |  |  |  |  |  |  |  |  |  |  |  |
| O=C(O)CCNCCCCNCCC(=O)O | > 100 | > 100 | > 100 | > 100 | > 100 | > 100 | > 100 | > 100 | > 100 |  |  |  |  |  |  |  |  |  |  |  |
| C=CCO/N=C(\OC(=O)c1ccc([N+](=O)[O-])cc1)c1ccccc1 | > 100 | > 100 | > 100 | > 100 | > 100 | > 100 | > 100 | > 100 | > 100 |  |  |  |  |  |  |  |  |  |  |  |
| COc1ccc(C(=O)C(CC2C(=O)NC(=O)NC2=O)c2ccc(OC)cc2)cc1 (centres undefined) | > 100 | > 100 | > 100 | > 100 | > 100 | > 100 | > 100 | > 100 | > 100 |  |  |  |  |  |  |  |  |  |  |  |

From PubChem BioAssay (NCI)
